In patent publication US6472383B1, “Pharmaceutical formulations” (priority 1994, dated 2002):
Where “and” joins values, the source holds several entries; their conditions need not be identical. Equal values may be shown once. Where a name gives a salt, the structure may show the parent alone.

How the values were obtained:
E. coli JT39 = test: in-vitro MIC of amoxycillin alone and with Example 1; assay type: cell-based; settings: alone; β-lactamase 2b (low expression)
JT4 = test: as above; assay type: cell-based, P. coli; settings: alone; β-lactamase 2b (high expression)
E. coli P91 = test: as above; assay type: cell-based; settings: alone; β-lactamase 2d
P. vulgaris C = test: as above; assay type: cell-based; settings: alone; β-lactamase 2e
Ent. cloacae N1 = test: as above; assay type: cell-based; settings: alone; β-lactamase 1 (inducible expression)
Ent. cloacae P99 = test: as above; assay type: cell-based; settings: alone; β-lactamase 1 (high constitutive expression)
P. mirabilis C889 = test: as above; assay type: cell-based; settings: alone; β-lactamase 2c
S. aureus Russell = test: as above; assay type: cell-based; settings: alone; β-lactamase 2a
[1] = system: Klebsiella pneumoniae (520), producing TEM-3 β-lactamase; test: mouse intraperitoneal infection, cefotaxime CD50; assay type: in vivo, mice
Experimental: (§1) In these studies, mice were infected intraperitoneally with a lethal challenge inoculum of strains of either Klebsiella pneumoniae (520), producing extended-spectrum TEM type ββ-lactamase, (TEM-3) or Enterobacter cloacae (4593) producing high levels of derepressed class (AmpC) ββ-lactamase. Virulence of all strains was enhanced by suspending the bacteria in hog gastric mucin prior to infection.
(§2) Mice were dosed subcutaneously at 1 and 5 hours post-infection, with either cefotaxime alone or coadministered with the ββ-lactamase inhibitor at 1 mg/kg or 5 mg/kg.
(§3) 1 CD50 (dose protecting 50% of animals from lethal infection) calculated from groups of 5 animals per test, subjected to a range of 4 dose levels (4-fold serial dilutions)
(§4) Efficacy was assessed by the number of animal surviving at 4 days after infection, and the total dose that protected 50% of treated animals (CD50 value) was calculated.

[2] = system: Enterobacter cloacae (4593) producing high levels of derepressed class (AmpC) β-lactamase; test: mouse intraperitoneal infection, cefotaxime CD50; assay type: in vivo, mice
Experimental: as §1, §2, §3, §4

[3] = system: TEM-3 producing strain of K.pneumoniae; test: MIC of cefotaxime, titration with Example 1; assay type: cell-based; settings: K.pneumoniae TEM-3
Experimental: (§5) The in-vitro synergistic activity of the compound of Example 1 above (i.e sodium (5R)-6-[(Z)-(2,3-dihydroimidazo[2,1-b]thiazol- 6-yl)methylene]penem-3-carboxylate) with cefotaxime was investigated.
The MIC (inimum inhibitory concentration) of cefotaxime against one TEM-3 producing strain of K.pneumoniae was measured.

B. fragilis [4] = test: in-vitro synergy with cefotaxime; assay type: cell-based; settings: 1 μg/ml Example 1
Text: as §5

[5] = system: strains of Enterobacteriaceae producing extended spectrum β-lactamases; test: in-vitro synergy with cefotaxime; assay type: cell-based; settings: 1 μg/ml Example 1
Text: as §5

[6] = system: Escherichia coli (E96), producing TEM-1 β-lactamase; test: mouse intraperitoneal infection, amoxycillin CD50; assay type: in vivo, mice; settings: coadministration with Example 1 versus amoxycillin alone
Experimental: In these studies, mice were infected intrapenitoneally with a lethal challenge inoculum of strains of Escherichia coli (E96), producing TEM-1 ββ-lactamase, for tests to protect amoxycillin. Virulence of all strains was enhanced by suspending the bacteria in hog gastric mucin prior to infection.
Mice were dosed subcutaneously at 1 and 5 hours post-infection, with either amoxycillin alone or coadministered with the ββ-lactamase inhibitor at 2 mg/kg.
as §4

E. cloacae = test: in vitro selection of ceftazidime-resistant cells in a growing population; assay type: cell-based
[7] = system: strain of Ent.cloacae producing high levels of Class 1 β-lactamases constitutively; test: MIC of cefotaxime, titration with Example 1; assay type: cell-based; settings: in presence of 1 μg/ml Example 1; Ent.cloacae high Class 1
B. fragilis [8] = test: in-vitro MIC of ceftazidime alone and with Example 1; assay type: cell-based
Text: (§6) The in-vitro synergistic activity of the compound of Example 1 above (i.e sodium (5R)-6-[(Z)-(2,3-dihydroimidazo[2,1-b]thiazol-6-yl) methylene]penem-3-carboxylate) with ceftazidime was investigated.

[9] = system: strain of Enterobacter producing extended spectrum β-lactamase enzymes; test: as above; assay type: cell-based; settings: Enterobacter ESBL strain
Text: as §6

serum half life = settings: in vivo
[10] = in presence of 1 μg/ml Example 1

## CC1(C)S[C@@H]2[C@H](NC(=O)[C@H](N)c3ccc(O)cc3)C(=O)N2[C@H]1C(=O)O [Amoxycillin, 6-[D(−)-α-amino-p-hydroxypheny-acetamido]penicillanic acid]
E. coli JT39
  Amoxycillin MIC: > 256 µg/mL
JT4
  Amoxycillin MIC: > 256 µg/mL
E. coli P91
  Amoxycillin MIC: > 256 µg/mL
P. vulgaris C
  Amoxycillin MIC: 32 µg/mL
Ent. cloacae N1
  Amoxycillin MIC: > 256 µg/mL
Ent. cloacae P99
  Amoxycillin MIC: > 256 µg/mL
P. mirabilis C889
  Amoxycillin MIC: > 256 µg/mL
S. aureus Russell
  Amoxycillin MIC: 128 µg/mL

## CO/N=C(\C(=O)N[C@@H]1C(=O)N2C(C(=O)O)=C(COC(C)=O)CS[C@H]12)c1csc(N)n1 [Cefotaxime]
[1]; cefotaxime alone, s.c. at 1 and 5 h post-infection, K. pneumoniae
  Cefotaxime CD50: 54 mg/kg and 42 mg/kg
[2]; cefotaxime alone, s.c. at 1 and 5 h post-infection, E. cloacae 4593
  Cefotaxime CD50: 240 mg/kg and 400 mg/kg
[3]; Klebsiella pneumoniae, in the absence of Example 1
  MIC: 64 µg/mL

## O=C([O-])C1=CS[C@@H]2/C(=C\c3cn4c(n3)SCC4)C(=O)N12.[Na+] [Example 1, Sodium (5R)-6-[(Z)-(2,3-Dihydroimidazo[2,1-b]thiazol-6-yl) Methylene]-penem-3-carboxylate]
B. fragilis [4]
  synergy with cefotaxime: Effective synergy
[5]
  synergy with cefotaxime: Effective synergy
[1]; cefotaxime plus Example 1 compared with cefotaxime alone, K.pneumoniae (520)
  protection of infected animals: consistent protection
[2]; cefotaxime plus Example 1 compared with cefotaxime alone, E. cloacae (4593)
  protection of infected animals: consistent protection
[3]; Example 1 at concentrations as low as 0.25 μg/ml
  MIC of cefotaxime: below 1 μg/ml
[6]
  effectiveness of amoxycillin in protecting animals: markedly more effective
E. cloacae; ceftazidime at 0.5 MIC plus Example 1
  rate of emergence of resistant isolates: reduced the rate of emergence of resistant isolates dramatically
E. cloacae; combination of ceftazidime and Example 1 versus ceftazidime alone
  final level of resistance: much lower than that observed with ceftazidime alone
[7]
  cefotaxime MIC: below 1 μg/ml
B. fragilis [8]; [10]
  MIC of ceftazidime: around 4 μg/ml
[9]; [10]
  MIC of ceftazidime: around 2 μg/ml
Serum half life
  serum half life: advantageously long

## CC(C)(O/N=C(\C(=O)N[C@@H]1C(=O)N2C(C(=O)[O-])=C(C[n+]3ccccc3)CS[C@H]12)c1csc(N)n1)C(=O)O [ceftazidime, [6R -[6α,7β(Z)]]-1-[[7-[[(2-amino-4-thiazolyl)[(1-carboxy-1-methylethoxy)imino]acetyl]amino]-2-carboxy-8-oxo-5-thia-1-azabicyclo[4.2.0]oct-2-en-3-yl]methyl]pyridinium hydroxide inner salt]
E. cloacae; ceftazidime alone at 0.5 MIC
  selection of cells showing high-level resistance to ceftazidime: rapidly selected
B. fragilis [8]; Bacteroides fragilis, ceftazidime alone
  MIC: ~7 µg/mL
[9]; ceftazidime alone
  MIC: ~7 µg/mL
